Assay [1] has as its target T1, CFTR channel (Homo sapiens, UniProt P13569). The assay is described as follows: whole-cell patch-clamp in CHO-CFTR(+) cells. The class given is cell-based. Further details: expressed in transfected cells; host or cells: CHO (Chinese hamster ovary) cells, CHO-CFTR(+). The conditions noted are these: glibenclamide 100 μM. An excerpt: The patch-clamp technique consists in applying a glass pipette or a glass microelectrode to the surface of the cell. By applying slight touch, it is possible to cause the membrane to adhere to the glass. A small piece of membrane (patch) is thus isolated at the end of the pipette. This is the principle of patch-clamp (O. P. Hamill et al., Pflügers Arch., 1981, 391, 85-100; R. Penner, A Practical Guide to Patch Clamping, 1995, In Single Channel Recording, 2nd edition (Eds. B. Sakmann et al.) Plenum Press, New York, 3-30). To do this, the patch-clamp pipette must have a tip of the order of 1 μm in diameter and a resistance of the order of 1-5 MΩ. The resistance of a pipette or of a microelectrode makes it possible to assess the fineness of the tip: the greater the resistance, the finer the tip or the more the electrode is blocked. […] Interactions between the membrane and the glass will form, aided by a slight suction or negative pressure in the pipette. The quality of this interaction (or sealing) is also assessed by measuring the resistance between the glass and the membrane. To measure overall currents in the whole cell configuration, a sealing resistance of 1 GΩ is sufficient.
More specifically, culture dishes (cell support) are placed in an experimentation cell (volume 1 ml) on the platform of an inverted microscope (Nikon) equipped with phase-contrast lighting. The whole-cell configuration is used for recording the cell currents (Hamill et al., 1981). The experiments are carried out at ambient temperature (20-22° C.). The currents are amplified with an Axopatch 200B amplifier (Axon Instrument Ltd) having a 2-5 kHz low-pass filter (Bessel 6-pole filter), and recorded on the hard disk of a PC after digitization at 10-25 kHz. The pipettes are produced from glass tubes 1 mm in diameter (Clark Electromedical Instrument) in four steps with a horizontal drawing device (Bruwn Flaming 97, CA).
The pipettes, filled with an intracellular solution containing, in mM: 60 KCl; 80 NMDG ([…]); 10 HEPES; 5 EGTA; 1 CaCl2; 4 MgATP; 0.2 Na3GTP; pH 7.4, titrated with KOH), having a resistance of 5 MΩ. The potentials are expressed as the difference between the potential of the patch electrode and that of the bath. In the whole-cell configuration, they represent the membrane potential of the cell. The junction potentials that form between the recording electrode and the extracellular medium are eliminated before the contact of the electrode with the cell. […] The current-voltage relationships in the stationary state are determined using slow voltage ramps (20 mV/.s) under an imposed voltage condition. […]

The target of assay [2] is T2, ΔF508 mutated CFTR channel (Homo sapiens, UniProt P13569, DEL508-508).
T2 construct: epithelial cells extracted from respiratory airways of patients suffering from cystic fibrosis (homozygous ΔF508); endogenous in cells; host or cells: JME/CF15 human airway epithelial cells (homozygous ΔF508)
T2 sequence (P13569 with tags, fused parts or gaps DEL508-508): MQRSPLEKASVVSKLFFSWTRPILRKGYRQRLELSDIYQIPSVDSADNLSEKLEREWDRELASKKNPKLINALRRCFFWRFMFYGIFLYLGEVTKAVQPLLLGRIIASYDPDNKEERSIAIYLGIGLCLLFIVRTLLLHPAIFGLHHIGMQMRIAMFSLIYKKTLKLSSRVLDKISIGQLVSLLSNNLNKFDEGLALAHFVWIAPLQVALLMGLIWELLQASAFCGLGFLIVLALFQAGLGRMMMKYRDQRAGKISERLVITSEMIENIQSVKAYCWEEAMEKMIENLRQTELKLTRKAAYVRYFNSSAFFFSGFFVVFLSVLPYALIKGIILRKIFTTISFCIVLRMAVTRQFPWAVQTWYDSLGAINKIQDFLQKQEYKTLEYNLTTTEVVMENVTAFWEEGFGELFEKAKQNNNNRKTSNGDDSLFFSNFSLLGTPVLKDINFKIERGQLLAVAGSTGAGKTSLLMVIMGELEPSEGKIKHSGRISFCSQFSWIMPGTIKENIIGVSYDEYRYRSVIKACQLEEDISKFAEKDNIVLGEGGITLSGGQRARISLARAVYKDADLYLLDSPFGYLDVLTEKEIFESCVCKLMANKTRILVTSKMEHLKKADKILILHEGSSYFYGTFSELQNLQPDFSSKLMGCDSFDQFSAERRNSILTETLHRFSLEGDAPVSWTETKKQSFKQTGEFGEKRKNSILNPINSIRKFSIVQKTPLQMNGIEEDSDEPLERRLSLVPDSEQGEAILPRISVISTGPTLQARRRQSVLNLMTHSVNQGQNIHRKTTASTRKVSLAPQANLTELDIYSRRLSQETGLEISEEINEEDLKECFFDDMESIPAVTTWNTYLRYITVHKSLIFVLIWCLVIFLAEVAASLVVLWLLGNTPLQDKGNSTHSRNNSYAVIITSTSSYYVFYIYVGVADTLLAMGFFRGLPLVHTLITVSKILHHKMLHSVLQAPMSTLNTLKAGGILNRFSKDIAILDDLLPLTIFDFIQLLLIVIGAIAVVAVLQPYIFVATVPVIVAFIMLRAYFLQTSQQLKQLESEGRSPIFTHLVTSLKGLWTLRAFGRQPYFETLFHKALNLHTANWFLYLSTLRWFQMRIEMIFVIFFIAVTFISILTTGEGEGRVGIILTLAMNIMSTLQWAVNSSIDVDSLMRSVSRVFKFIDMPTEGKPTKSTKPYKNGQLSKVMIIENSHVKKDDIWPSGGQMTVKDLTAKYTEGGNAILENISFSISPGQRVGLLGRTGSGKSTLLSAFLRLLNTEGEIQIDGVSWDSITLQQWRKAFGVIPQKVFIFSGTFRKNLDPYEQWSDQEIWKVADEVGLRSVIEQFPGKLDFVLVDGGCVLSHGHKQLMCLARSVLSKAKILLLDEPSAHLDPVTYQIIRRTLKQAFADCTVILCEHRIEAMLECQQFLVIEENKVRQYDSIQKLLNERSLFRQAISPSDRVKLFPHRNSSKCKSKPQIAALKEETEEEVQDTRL
The assay is described as follows: iodide efflux in JME/CF15 human bronchial epithelial cells from cystic fibrosis patients. The class given is cell-based. The settings on record: glibenclamide 100 μM, DIDS 500 μM. Here is the method: (§1) The CFTR studies are also carried out on Calu-3 cells (ATCC No. HTB-55), which are human pulmonary epithelial cells endogenously expressing the CFTR channel. These cells are cultured under the same culture conditions as the CHO cells. The study of the mutated CFTR channel is carried out on JME/CF15 cells, which are epithelial cells extracted from respiratory airways of patients suffering from cystic fibrosis (homozygous ΔF508) (Jefferson et al., 1990). These cells therefore express the ΔF508 mutated CFTR channel. These cells are cultured under the same conditions as above, but the culture medium is supplemented with a hormone mixture containing: adenine (180 μM), insulin (5 μg/ml), transferrin (5 μg/ml), hydrocortisone (1.1 μM), triiodothyronine (2 nM), epinephrine (5.5 μM), epidermal growth factor (1.64 nM).
(§2) This technique makes it possible to follow the kinetics of exit of the ^125I radioactive iodide. The cells are cultured in 24-well plates with a dilution to 1/10 after passage. On the fourth day of culture, the drugs to be tested are dissolved in solution according to the desired concentration, at 37° C., in medium B, at pH 7.4, containing, in mM: 137 NaCl, 5.36 KCl, 0.8 mM MgCl2, 1.8 mM CaCl2, 5.5 glucose and 10 HEPES-NaOH. The wells are washed 4 times with 500 μl of medium B. The solution is subsequently replaced with 500 μl of loading solution containing 1 μM KI and 0.5 μCi of ^125INa/ml for 30 min. The kinetics of exit of ^125I are determined after having eliminated the loading solution and washed the wells 4 times with 500 μl of medium B. For the ^125I exit kinetics, 500 μl of medium B containing or not containing the molecules to be tested are incubated for 30 sec in the wells and recovered in a hemolysis tube, so as to be replaced with 500 μl of medium B containing or not containing the molecules to be tested. The operation is repeated every 30 s for 2 to 6 min. At the end of the efflux, the intracellular ions are extracted by adding 1 ml of trichloroacetic acid (7.5%) to the cell layer. All the samples are counted in a gamma counter (Kontron). The precipitated proteins are solubilized in 0.1N NaOH and quantified using a calorimetric test.
(§3) The tracer contained in the cell layer at the beginning of the efflux is calculated as the sum of the samples and of the extracts counted. The efflux curves are constructed by expressing the percentage of the content remaining in the cell layer (I %) with respect to time. The stimulated or nonstimulated efflux rate constants (k, min^−1) are determined by smoothing the efflux curves to a monoexponential function I %=100*exp(−kt) using a linear regression of the neperian logarithm of the data, k is used to calculate the iodide released into the medium with respect to time. The hypothesis is made that, in the presence of a stimulator, the efflux is the sum of two iodide effluxes occurring in parallel: a basal efflux and a stimulated efflux characterized, respectively, by the constants kb and ks. The total net efflux is then described by the equation It^%=100*(1−exp(−ktt)) where kt is the sum of kb and ks. Finally, ks calculated as kt−kb is used to establish a dose-response relationship for antagonists. The data is expressed as means ±SD, and the t-test is used to determine the significances. […] Y begins at the basal level and progresses to the plateau (Ymax), X is the concentration and the half-effect values (EC are calculated using GraphPad Prism v3.0 (GraphPad software)).

Assay [3] has as its target T1, CFTR channel. The assay is described as follows: 125I radioactive iodide efflux in CHO-CFTR(+) cells. Also noted: expressed in transfected cells; host or cells: CHO (Chinese hamster ovary) cells, CHO-CFTR(+). It counts as cell-based. The settings on record: for effect of inhibitor on activated 125I efflux: CHO-CFTR(+) cells stimulated by octan-1-ol 1 mM, FSK 1 μM or both, glibenclamide 100 μM, H-89 30 μM, PKC inhibitor; for order of activation of CFTR by n-alkanols: 1 mM, 125I efflux or patch-clamp; for activation of CFTR (125I efflux), in words: n-alkanols 1 mM, FSK 1 μM, A23187 2 μM, α-GA 10 and 100 μM. Here is the method:
The cells are cultured in 24-well plates with a dilution to 1/10 after passage. […] The operation is repeated every 30 s for 2 to 6 min. […] All the samples are counted in a gamma counter (Kontron). The precipitated proteins are solubilized in 0.1N NaOH and quantified using a calorimetric test.
The tracer contained in the cell layer at the beginning of the efflux is calculated as the sum of the samples and of the extracts counted. The efflux curves are constructed by expressing the percentage of the content remaining in the cell layer (I %) with respect to time. The stimulated or nonstimulated efflux rate constants (k, min^−1) are determined by smoothing the efflux curves to a monoexponential function I %=100*exp(−kt) using a linear regression of the neperian logarithm of the data, k is used to calculate the iodide released into the medium with respect to time. The hypothesis is made that, in the presence of a stimulator, the efflux is the sum of two iodide effluxes occurring in parallel: a basal efflux and a stimulated efflux characterized, respectively, by the constants kb and ks. The total net efflux is then described by the equation It^%=100*(1−exp(−ktt)) where kt is the sum of kb and ks. Finally, ks calculated as kt−kb is used to establish a dose-response relationship for antagonists. The data is expressed as means ±SD, and the t-test is used to determine the significances. The concentration-response curves for agonists or for antagonists are smooth using the hyperbolic equation Y=Ymax*X/(EC5C+X), where Y is the response. Y begins at the basal level and progresses to the plateau (Ymax), X is the concentration and the half-effect values (EC are calculated using GraphPad Prism v3.0 (GraphPad software)).

Assay [4] addresses T3, human CFTR channel endogenously expressed in Calu-3 (Homo sapiens, UniProt P13569).
T3 construct: human pulmonary epithelial cells endogenously expressing the CFTR channel; host or cells: Calu-3 human pulmonary epithelial cells
The assay is described as follows: iodide efflux in Calu-3 human bronchial epithelial cells. It counts as cell-based. The conditions noted are these: Calu-3; 1 hour treatment; glibenclamide 100 μM, DIDS 500 μM. Here is the method:
as §1, §2, §3

The subject of another assay is CHO-CFTR(-) cells. The assay is described as follows: 125I iodide efflux in CHO-CFTR(-) control cells that do not express CFTR. The class given is cell-based, Chinese hamster. The settings on record: octan-1-ol 0.1 to 5 mM, FSK 5 μM, A23187 2 μM.
For a further assay, the system named is intracellular cAMP level. Kind of assay: total intracellular cAMP assay in CHO-CFTR(+) cells. It counts as cell-based, Chinese hamster. The conditions noted are these: 5 min, FSK 1 or 5 μM, alcohols 1 mM. Here is the method: The CHO cells are cultured for four days in a 24-well culture plate. On the fourth day of culture, each well is rinsed twice with 500 μl of medium B, and 500 μl of this buffer containing the molecule to be tested are added to each well. After incubation at 37° C. for 5 min, the reaction is stopped by adding a cell lysis buffer. The cell lysis is verified with Trypan blue. The amount of cAMP contained in the cells is determined using the Enzyme Immuno Assay kit (Amersham Biotechnology). The cAMP level is expressed in pmol/well ±SD.

T1 sequence (P13569 whole entry): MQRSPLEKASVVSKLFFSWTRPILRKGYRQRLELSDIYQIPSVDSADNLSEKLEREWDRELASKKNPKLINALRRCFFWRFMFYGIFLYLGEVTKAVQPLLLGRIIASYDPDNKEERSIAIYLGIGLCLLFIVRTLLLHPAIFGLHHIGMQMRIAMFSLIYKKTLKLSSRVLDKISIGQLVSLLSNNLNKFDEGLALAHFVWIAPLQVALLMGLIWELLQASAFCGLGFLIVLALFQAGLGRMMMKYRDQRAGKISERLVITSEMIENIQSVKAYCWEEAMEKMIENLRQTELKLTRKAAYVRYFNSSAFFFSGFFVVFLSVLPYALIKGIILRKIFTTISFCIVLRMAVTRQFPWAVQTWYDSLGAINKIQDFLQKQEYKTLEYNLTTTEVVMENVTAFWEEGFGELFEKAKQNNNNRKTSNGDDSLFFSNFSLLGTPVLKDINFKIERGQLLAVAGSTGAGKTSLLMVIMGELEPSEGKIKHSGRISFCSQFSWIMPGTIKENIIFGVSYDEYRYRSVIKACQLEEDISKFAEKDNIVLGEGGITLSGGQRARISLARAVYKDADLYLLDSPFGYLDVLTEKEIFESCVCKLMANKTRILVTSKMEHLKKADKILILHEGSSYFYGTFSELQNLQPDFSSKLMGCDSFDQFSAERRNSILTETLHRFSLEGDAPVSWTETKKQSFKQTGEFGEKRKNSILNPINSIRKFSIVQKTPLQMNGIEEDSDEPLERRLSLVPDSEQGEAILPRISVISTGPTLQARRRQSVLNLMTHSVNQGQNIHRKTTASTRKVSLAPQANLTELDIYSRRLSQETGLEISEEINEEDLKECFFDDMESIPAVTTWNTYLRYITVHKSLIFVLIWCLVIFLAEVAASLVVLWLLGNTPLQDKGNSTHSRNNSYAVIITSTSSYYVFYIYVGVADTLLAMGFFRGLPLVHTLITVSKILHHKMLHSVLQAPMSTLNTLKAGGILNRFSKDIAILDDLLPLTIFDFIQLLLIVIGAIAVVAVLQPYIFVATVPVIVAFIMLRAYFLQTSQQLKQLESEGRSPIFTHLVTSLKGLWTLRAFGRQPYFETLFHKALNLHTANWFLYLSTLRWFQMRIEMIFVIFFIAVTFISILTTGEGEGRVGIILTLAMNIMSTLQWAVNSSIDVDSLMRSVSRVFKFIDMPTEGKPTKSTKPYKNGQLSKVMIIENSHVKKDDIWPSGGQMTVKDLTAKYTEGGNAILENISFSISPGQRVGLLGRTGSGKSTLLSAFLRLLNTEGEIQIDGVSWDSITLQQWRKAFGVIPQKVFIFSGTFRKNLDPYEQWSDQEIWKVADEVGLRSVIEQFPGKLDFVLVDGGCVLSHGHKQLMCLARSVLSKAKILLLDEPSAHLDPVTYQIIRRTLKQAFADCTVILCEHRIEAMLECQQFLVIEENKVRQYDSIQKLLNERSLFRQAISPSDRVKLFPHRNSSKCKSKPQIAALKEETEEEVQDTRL
T3 sequence (P13569 whole entry): as above

As for `COc1ccc(Cl)cc1C(=O)NCCc1ccc(S(=O)(=O)NC(=O)NC2CCCCC2)cc1` [glibenclamide, reference compound], the “effect of glibenclamide on FSK- or octan-1-ol-induced current” value on CFTR channel [1] is “completely inhibited”. Further, the “effect of inhibitor on CFTR-ΔF508 activation by octan-1-ol” value in assay [2] is given as “inhibited”. Moreover, the “effect of inhibitor on activated 125I efflux” value at CFTR channel [3] is “completely inhibited”. In addition, in assay [4], the “effect of inhibitor on octan-1-ol-activated efflux” value is recorded as “strongly blocked”.
Consider `CCCCCCC(C)O` (stereo not drawn) [octan-2-ol], for which the “order of activation of CFTR by n-alkanols” value (“order of activation of CFTR” for short) at CFTR channel [3] is given as “hexan-1-ol<heptan-1-ol<octan-1-ol<octan-2-ol<decan-1-ol”. For the same molecule, at CFTR channel [3] (CHO-CFTR(+) cells), the “activation of CFTR (125I efflux), in words” value (“activation of CFTR … in words” for short) was “also activates the CFTR protein”.
In the case of `C=C[C@@]1(C)CC(=O)[C@]2(O)[C@@]3(C)[C@@H](O)CCC(C)(C)[C@@H]3[C@H](O)[C@H](OC(C)=O)[C@@]2(C)O1` [FSK, forskolin, reference compound], the EC50 at CFTR channel [3] (EC50 of activation of CFTR (125I efflux rate constant), CHO-CFTR(+) cells, FSK 0.1 to 5 μM) is around 500 nM.
Regarding `CNc1ccc2oc(C[C@H]3O[C@@]4(CC[C@H]3C)O[C@H]([C@H](C)C(=O)c3ccc[nH]3)[C@H](C)C[C@H]4C)nc2c1C(=O)O` [A23187, reference compound], the “activation of CFTR … in words” value on CFTR channel [3] (CHO-CFTR(+) cells) is “has no effect”. Moreover, the “effect on basal level of 125I efflux in cells not expressing CFTR” value in the assay with CHO-CFTR(-) cells was “has no effect”.
Take `CCCCCCCO` [heptan-1-ol]: the “order of activation of CFTR” value at CFTR channel [3] is “hexan-1-ol<heptan-1-ol<octan-1-ol<octan-2-ol<decan-1-ol”. The “activation of CFTR … in words” value on CFTR channel [3] (CHO-CFTR(+) cells) is “increase in activation of CFTR”.
For `CCCCCCO` [hexan-1-ol], in the assay with intracellular cAMP level, the “effect on intracellular cAMP level” value is given as “neither octan-1-ol, hexan-1-ol or ethanol modifies the basal cAMP level”. In addition, the “order of activation of CFTR” value on CFTR channel [3] is “hexan-1-ol<heptan-1-ol<octan-1-ol<octan-2-ol<decan-1-ol”. The “activation of CFTR … in words” value on CFTR channel [3] (CHO-CFTR(+) cells) is “significantly activates the CFTR channel”.
Consider `CCCCCCCCCCO` [decan-1-ol], for which the “order of activation of CFTR” value on CFTR channel [3] is recorded as “hexan-1-ol<heptan-1-ol<octan-1-ol<octan-2-ol<decan-1-ol”. Besides, the “activation of CFTR … in words” value at CFTR channel [3] (CHO-CFTR(+) cells) is reported as “significantly activates the CFTR channel”.
As to `O=S(=O)(O)c1cc(N=C=S)ccc1C=Cc1ccc(N=C=S)cc1S(=O)(=O)O` [DIDS, 4,4′-diisothiocyanatostilbene-2,2′-disulfonic acid, reference compound], in assay [2], the “effect of inhibitor on CFTR-ΔF508 activation by octan-1-ol” value was “insensitive”. The “effect of inhibitor on octan-1-ol-activated efflux” value in assay [4] was “has no effect”.
Consider `CCO` [ethanol, reference compound], for which, in the assay on intracellular cAMP level, the “effect on intracellular cAMP level” value is given as “neither octan-1-ol, hexan-1-ol or ethanol modifies the basal cAMP level”. In addition, the “activation of CFTR … in words” value at CFTR channel [3] (CHO-CFTR(+) cells) is given as “do not activate the CFTR channel”.
For `O=S(=O)(NCCNC/C=C/c1ccc(Br)cc1)c1cccc2cnccc12` [H-89, reference compound], the “effect of inhibitor on activated 125I efflux” value at CFTR channel [3] is “inhibited”.
With butan-1-ol [reference compound], the “activation of CFTR … in words” value was “not significantly different from the unstimulated efflux” at CFTR channel [3] (CHO-CFTR(+) cells) and “do not activate the CFTR channel” on CFTR channel [3] (CHO-CFTR(+) cells, listed as butanol).
Take `CO` [methanol, reference compound]: at CFTR channel [3] (CHO-CFTR(+) cells), the “activation of CFTR … in words” value was “not significantly different from the unstimulated efflux”.
